According to the supplement of paper PMC4862054:
Values joined by “and” are separate entries in the source; they are usually repeats but may differ in a detail not shown here. Identical values can stand only once.

What was measured:
Assay in all cases: normalised viability (% of control), CellTiter-Blue; higher = more viable cells (about 100 = DMSO control)
Conditions in all cases: incubation time: 72 h
CAL-85-1 [1] = test system: CAL-85-1
Experimental: (§1)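 DSRT, CellTiter-Blue viability, 72 h incubation. Signal is normalised to DMSO and benzethonium chloride controls. Value is the normalised response at dose 6.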

CAL-148 [2] = test system: CAL-148
Experimental: as §1

MDA-MB-453 [3] = test system: MDA-MB-453
Experimental: as §1

HDQ-P1 [4] = test system: HDQ-P1
Experimental: as §1

CAL-51 [5] = test system: CAL-51
Experimental: as §1

DU-4475 [6] = test system: DU-4475
Experimental: as §1

CAL-85-1 [7] = test system: CAL-85-1; remark: listed apart in the source
Experimental: (§2)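 DSRT, CellTiter-Blue viability, 72 h incubation. Signal is normalised to DMSO and benzethonium chloride controls. Value is the normalised response at dose 7.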

CAL-148 [8] = test system: CAL-148; remark: listed apart in the source
Experimental: as §2

MDA-MB-453 [9] = test system: MDA-MB-453; remark: listed apart in the source
Experimental: as §2

HDQ-P1 [10] = test system: HDQ-P1; remark: listed apart in the source
Experimental: as §2

CAL-51 [11] = test system: CAL-51; remark: listed apart in the source
Experimental: as §2

DU-4475 [12] = test system: DU-4475; remark: listed apart in the source
Experimental: as §2

CAL-85-1 [13] = test system: CAL-85-1; remark: listed apart in the source
Experimental: (§3)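 DSRT, CellTiter-Blue viability, 72 h incubation. Signal is normalised to DMSO and benzethonium chloride controls. Value is the normalised response at dose 8.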

CAL-148 [14] = test system: CAL-148; remark: listed apart in the source
Experimental: as §3

MDA-MB-453 [15] = test system: MDA-MB-453; remark: listed apart in the source
Experimental: as §3

HDQ-P1 [16] = test system: HDQ-P1; remark: listed apart in the source
Experimental: as §3

CAL-51 [17] = test system: CAL-51; remark: listed apart in the source
Experimental: as §3

DU-4475 [18] = test system: DU-4475; remark: listed apart in the source
Experimental: as §3

Compound	normalised viability (CAL-85-1 [1])	normalised viability (CAL-148 [2])	normalised viability (MDA-MB-453 [3])	normalised viability (HDQ-P1 [4])	normalised viability (CAL-51 [5])	normalised viability (DU-4475 [6])	further results
Cc1cccc(-c2nn3c(c2-c2ccnc4ccc(C(N)=O)cc24)CCC3)n1 (30 nM)	96.7%	89.8%	93.3%	100%	103%	95.8%	
Cn1cc(CNCC2CCN(c3ncc(C(=O)NO)cn3)CC2)c2ccccc21 (30 nM)	38.9%	24.2%	4.37%	37.5%	70.1%	29.3%	
Cc1cccc(-c2nn3c(c2-c2ccnc4ccc(C(N)=O)cc24)CCC3)n1 (100 nM)							normalised viability (CAL-85-1 [7]): 89.5%; normalised viability (CAL-148 [8]): 104%; normalised viability (MDA-MB-453 [9]): 93.4%; normalised viability (HDQ-P1 [10]): 120%; normalised viability (CAL-51 [11]): 97.6%; normalised viability (DU-4475 [12]): 108%
Cn1cc(CNCC2CCN(c3ncc(C(=O)NO)cn3)CC2)c2ccccc21 (100 nM)							normalised viability (CAL-85-1 [7]): 16.6%; normalised viability (CAL-148 [8]): 3.75%; normalised viability (MDA-MB-453 [9]): 2.32%; normalised viability (HDQ-P1 [10]): 33.5%; normalised viability (CAL-51 [11]): 36.7%; normalised viability (DU-4475 [12]): 12.3%
COc1ccc(-c2cc3c(C)nc(N)nc3n([C@H]3CC[C@H](OCCO)CC3)c2=O)cn1 (300 nM)	49.9%	42.2%	16.9%	18%	30.1%	65.8%	
Cc1cccc(-c2nn3c(c2-c2ccnc4ccc(C(N)=O)cc24)CCC3)n1 (300 nM)							normalised viability (CAL-85-1 [13]): 108%; normalised viability (CAL-148 [14]): 110%; normalised viability (MDA-MB-453 [15]): 115%; normalised viability (HDQ-P1 [16]): 125%; normalised viability (CAL-51 [17]): 103%; normalised viability (DU-4475 [18]): 102%
Cn1cc(CNCC2CCN(c3ncc(C(=O)NO)cn3)CC2)c2ccccc21 (300 nM)							normalised viability (CAL-85-1 [13]): 8.58%; normalised viability (CAL-148 [14]): 1.57%; normalised viability (MDA-MB-453 [15]): 2.81%; normalised viability (HDQ-P1 [16]): 18.8%; normalised viability (CAL-51 [17]): 7.57%; normalised viability (DU-4475 [18]): 2.97%
O=C(NC[C@H](O)CO)c1ccncc1Nc1ccc(I)cc1F (300 nM)	77.3%	82.7%	98%	57.6%	85.9%	0.69%	
O=C(NC[C@H](O)CO)c1ccncc1Nc1ccc(I)cc1F (1000 nM)							normalised viability (CAL-85-1 [7]): 65.3%; normalised viability (CAL-148 [8]): 77.3%; normalised viability (MDA-MB-453 [9]): 77.4%; normalised viability (HDQ-P1 [10]): 58.5%; normalised viability (CAL-51 [11]): 78.2%; normalised viability (DU-4475 [12]): 0.41%
COc1ccc(-c2cc3c(C)nc(N)nc3n([C@H]3CC[C@H](OCCO)CC3)c2=O)cn1 (3000 nM)							normalised viability (CAL-85-1 [13]): 10.4%; normalised viability (CAL-148 [14]): 6.69%; normalised viability (MDA-MB-453 [15]): 3.88%; normalised viability (HDQ-P1 [16]): 10.7%; normalised viability (CAL-51 [17]): 2.65%; normalised viability (DU-4475 [18]): 6.45%
O=C(NC[C@H](O)CO)c1ccncc1Nc1ccc(I)cc1F (3000 nM)							normalised viability (CAL-85-1 [13]): 48%; normalised viability (CAL-148 [14]): 66.8%; normalised viability (MDA-MB-453 [15]): 57.3%; normalised viability (HDQ-P1 [16]): 57.4%; normalised viability (CAL-51 [17]): 78.9%; normalised viability (DU-4475 [18]): 0.63%
Nc1nc(=O)c2c([nH]1)NCC(CNc1ccc(C(=O)N[C@@H](CCC(=O)O)C(=O)O)cc1)N2C=O (mixture of isomers) [Folinic acid] (29.7 nM)	100%	86.6%	99.8%	140%	97.8%	115%	
Nc1nc(=O)c2c([nH]1)NCC(CNc1ccc(C(=O)N[C@@H](CCC(=O)O)C(=O)O)cc1)N2C=O (mixture of isomers) [Folinic acid] (99 nM)							normalised viability (CAL-85-1 [7]): 87.2%; normalised viability (CAL-148 [8]): 97.8%; normalised viability (MDA-MB-453 [9]): 103%; normalised viability (HDQ-P1 [10]): 134%; normalised viability (CAL-51 [11]): 93%; normalised viability (DU-4475 [12]): 104%
Nc1nc(=O)c2c([nH]1)NCC(CNc1ccc(C(=O)N[C@@H](CCC(=O)O)C(=O)O)cc1)N2C=O (mixture of isomers) [Folinic acid] (297 nM)							normalised viability (CAL-85-1 [13]): 100%; normalised viability (CAL-148 [14]): 95.2%; normalised viability (MDA-MB-453 [15]): 106%; normalised viability (HDQ-P1 [16]): 122%; normalised viability (CAL-51 [17]): 92.8%; normalised viability (DU-4475 [18]): 98.8%
O=C(Nc1c[nH]nc1-c1nc2ccc(CN3CCOCC3)cc2[nH]1)NC1CC1 [AT9283] (300 nM)	87.7%	61.9%	58.1%	61.1%	59.1%	28.4%	
COc1cc(CCc2cc(NC(=O)c3ccc(N4CC(C)NC(C)C4)cc3)n[nH]2)cc(OC)c1 (centres undefined) [AZD4547] (30 nM)	89.7%	105%	109%	103%	107%	92.7%	
CCC/C=C/C=C/C(=O)O[C@H]1/C(=C/C(=O)OC)C[C@H]2C[C@H]([C@@H](C)O)OC(=O)C[C@H](O)C[C@@H]3C[C@H](OC(C)=O)C(C)(C)[C@](O)(C[C@@H]4C/C(=C/C(=O)OC)C[C@H](/C=C/C(C)(C)[C@]1(O)O2)O4)O3 [Bryostatin 1] (3 nM)	110%	85.5%	85.9%	78.6%	98.7%	88.7%	
CO[C@@H](C(=O)N1Cc2[nH]nc(NC(=O)c3ccc(N4CCN(C)CC4)cc3)c2C1)c1ccccc1 [Danusertib] (300 nM)	61.9%	54.6%	60.2%	50.8%	60.3%	57%	
Cc1nc(Nc2ncc(C(=O)Nc3c(C)cccc3Cl)s2)cc(N2CCN(CCO)CC2)n1 [Dasatinib] (30 nM)	83.9% and 86%	110% and 90.6%	102% and 101%	24.4% and 18.2%	59.8% and 68.3%	105% and 87.6%	
